{"source": "paper PMC6492180", "about": "“Cytome micronucleus assays with a metabolically competent human derived liver cell line (Huh6): A promising approach for routine testing of chemicals?” (Environmental and Molecular Mutagenesis, 2018)", "key": {"Huh6 cells": {"tested_on": "Huh6 cells", "procedure": "All experiments were performed in duplicate.\n3.8–4.0 × 10^5 cells per well were seeded into 6‐well plates with 3 mL of RPMI (4% FBS) for 12 hr, then dilutions of stock solutions of the diagnostic mutagens were added for different time periods (4, 24, and 48 hr). In each experimental series solvent controls were included. Subsequently, the cells were washed twice with 3.0 mL medium. […] Finally, the cells were washed and trypsinised. Afterwards the cells were washed twice with 8.0 mL RPMI and collected on slides by cytocentrifugation (600 rpm, 5 min). The slides were air dried, fixed, and stained with DiffQuick according to the instructions of the manufacturer. For each experimental point, two cultures were tested per dose. From each culture ≥1,000 BN cells were evaluated under 400‐fold magnification (Nikon Photophot‐FXA, Tokyo, Japan). At least 2,000 binucleated cells were analyzed per dose for the determination of the different nuclear anomalies (MN, NBuds, and NBs).\nThe experiments were performed as described in the previous chapter. The cells were exposed only to one dose of the different mutagens and were cultivated after the seeding in 6‐well plates which contained 4% or 10% FBS in RPMI, respectively.\nData were evaluated by generalized linear model with Poisson counts. Chi‐square tests for overdispersion were applied. […] P values ≤0.05 were considered statistically significant.\n^150-60 000 cells were seeded in 6 well plates with 3 ml RPMI (4% FBS), subsequently different solutions of the test compound (dissolved in medium) were added. After treatment for different time periods, the cells was washed and processed as described in the Material and Method section. […] From each culture 1000 binoculated cells were evaluated. BN-MN – number of micronucleated cells; MN - total number of micronuclei; CBPI – cytokinesis-block proliferation index\n^1The experiments were conducted essentially as described in the footnote of Table S1A-I. *p≤0.05"}, "HepG2": {"tested_on": "HepG2", "settings": "HepG2, cited from earlier work"}, "Hep3B": {"tested_on": "Hep3B", "settings": "Hep3B; ref Majer et al., 2004; cited from earlier work"}, "Human lymphocytes": {"tested_on": "Human lymphocytes", "settings": "Human lymphocytes, + S9; ref Katic et al., 2010; cited from earlier work"}, "[1]": {"settings": "ref IARC (2018); cited from earlier work"}, "[2]": {"settings": "10% FBS, 24 hr treatment, 100 µM"}}, "note": "Like-named read-outs stand apart in the source and are kept apart here. Marks after values point to notes of the source that are not given here."}
{"smiles": "CN(C)N=O", "note": "[NDMA, N‐nitrosodimethylamine]", "values": [{"measurement": "MN effects after 24 hr (or longer) compared with 4 hr treatment (in words)", "setting": "Huh6 cells; 4% FBS", "result": "more pronounced effects"}, {"measurement": "BN-MN (number of micronucleated cells)", "setting": "Huh6 cells; 4% FBS, 4hrs, 50 mM", "result": "21.0 ± 1.4 ‰"}, {"measurement": "Bridges", "setting": "Huh6 cells; 4% FBS, 4hrs, 50 mM", "result": "0.5 ± 0.7 ‰"}, {"measurement": "Buds", "setting": "Huh6 cells; 4% FBS, 4hrs, 50 mM", "result": "16.5 ± 2.1 ‰"}, {"measurement": "CBPI", "setting": "Huh6 cells; 4% FBS, 4hrs, 50 mM", "result": "1.7 ± 0.1"}, {"measurement": "MN (total number of micronuclei)", "setting": "Huh6 cells; 4% FBS, 4hrs, 50 mM", "result": "21.5 ± 0.7 ‰"}, {"measurement": "BN-MN (number of micronucleated cells)", "setting": "Huh6 cells; 4% FBS, 4hrs, 100 mM", "result": "24.0 ± 2.8 ‰"}, {"measurement": "Bridges", "setting": "Huh6 cells; 4% FBS, 4hrs, 100 mM", "result": "0.5 ± 0.7 ‰"}, {"measurement": "Buds", "setting": "Huh6 cells; 4% FBS, 4hrs, 100 mM", "result": "20.0 ± 1.4 ‰"}, {"measurement": "CBPI", "setting": "Huh6 cells; 4% FBS, 4hrs, 100 mM", "result": "1.7 ± 0.0"}, {"measurement": "MN (total number of micronuclei)", "setting": "Huh6 cells; 4% FBS, 4hrs, 100 mM", "result": "26.5 ± 0.7 ‰"}, {"measurement": "BN-MN (number of micronucleated cells)", "setting": "Huh6 cells; 4% FBS, 4hrs, 200 mM", "result": "26.5 ± 2.1* ‰"}, {"measurement": "Bridges", "setting": "Huh6 cells; 4% FBS, 4hrs, 200 mM", "result": "0.5 ± 0.7 ‰"}, {"measurement": "Buds", "setting": "Huh6 cells; 4% FBS, 4hrs, 200 mM", "result": "25.5 ± 5.0* ‰"}, {"measurement": "CBPI", "setting": "Huh6 cells; 4% FBS, 4hrs, 200 mM", "result": "1.5 ± 0.0"}, {"measurement": "MN (total number of micronuclei)", "setting": "Huh6 cells; 4% FBS, 4hrs, 200 mM", "result": "27.5 ± 0.7* ‰"}, {"measurement": "BN-MN (number of micronucleated cells)", "setting": "Huh6 cells; 4% FBS, 24hrs, 25 mM", "result": "20.5 ± 0.7 ‰"}, {"measurement": "Bridges", "setting": "Huh6 cells; 4% FBS, 24hrs, 25 mM", "result": "0.0 ± 0.0 ‰"}, {"measurement": "Buds", "setting": "Huh6 cells; 4% FBS, 24hrs, 25 mM", "result": "7.0 ± 1.4 ‰"}, {"measurement": "CBPI", "setting": "Huh6 cells; 4% FBS, 24hrs, 25 mM", "result": "1.8 ± 0.1"}, {"measurement": "MN (total number of micronuclei)", "setting": "Huh6 cells; 4% FBS, 24hrs, 25 mM", "result": "20.5 ± 0.7 ‰"}, {"measurement": "BN-MN (number of micronucleated cells)", "setting": "Huh6 cells; 4% FBS, 24hrs, 50 mM", "result": "21.5 ± 5.0 ‰"}, {"measurement": "Bridges", "setting": "Huh6 cells; 4% FBS, 24hrs, 50 mM", "result": "0.5 ± 0.7 ‰"}, {"measurement": "Buds", "setting": "Huh6 cells; 4% FBS, 24hrs, 50 mM", "result": "9.5 ± 2.1* ‰"}, {"measurement": "CBPI", "setting": "Huh6 cells; 4% FBS, 24hrs, 50 mM", "result": "1.8 ± 0.1"}, {"measurement": "MN (total number of micronuclei)", "setting": "Huh6 cells; 4% FBS, 24hrs, 50 mM", "result": "22.5 ± 3.5 ‰"}, {"measurement": "BN-MN (number of micronucleated cells)", "setting": "Huh6 cells; 4% FBS, 24hrs, 100 mM", "result": "30.0 ± 2.8* ‰"}, {"measurement": "Bridges", "setting": "Huh6 cells; 4% FBS, 24hrs, 100 mM", "result": "3.5 ± 0.7 ‰"}, {"measurement": "Buds", "setting": "Huh6 cells; 4% FBS, 24hrs, 100 mM", "result": "13.0 ± 4.2* ‰"}, {"measurement": "CBPI", "setting": "Huh6 cells; 4% FBS, 24hrs, 100 mM", "result": "1.7 ± 0.0"}, {"measurement": "MN (total number of micronuclei)", "setting": "Huh6 cells; 4% FBS, 24hrs, 100 mM", "result": "32.0 ± 2.8* ‰"}, {"measurement": "BN-MN (number of micronucleated cells)", "setting": "Huh6 cells; 4% FBS, 48hrs, 25 mM", "result": "20.5 ± 0.7 ‰"}, {"measurement": "Bridges", "setting": "Huh6 cells; 4% FBS, 48hrs, 25 mM", "result": "0.5 ± 0.7 ‰"}, {"measurement": "Buds", "setting": "Huh6 cells; 4% FBS, 48hrs, 25 mM", "result": "23.0 ± 2.8 ‰"}, {"measurement": "CBPI", "setting": "Huh6 cells; 4% FBS, 48hrs, 25 mM", "result": "1.8 ± 0.0"}, {"measurement": "MN (total number of micronuclei)", "setting": "Huh6 cells; 4% FBS, 48hrs, 25 mM", "result": "21.5 ± 2.1 ‰"}, {"measurement": "BN-MN (number of micronucleated cells)", "setting": "Huh6 cells; 4% FBS, 48hrs, 50 mM", "result": "22.0 ± 4.2 ‰"}, {"measurement": "Bridges", "setting": "Huh6 cells; 4% FBS, 48hrs, 50 mM", "result": "1.0 ± 1.4 ‰"}, {"measurement": "Buds", "setting": "Huh6 cells; 4% FBS, 48hrs, 50 mM", "result": "27.0 ± 4.2 ‰"}, {"measurement": "CBPI", "setting": "Huh6 cells; 4% FBS, 48hrs, 50 mM", "result": "1.8 ± 0.0"}, {"measurement": "MN (total number of micronuclei)", "setting": "Huh6 cells; 4% FBS, 48hrs, 50 mM", "result": "23.5 ± 5.0 ‰"}, {"measurement": "BN-MN (number of micronucleated cells)", "setting": "Huh6 cells; 4% FBS, 48hrs, 100 mM", "result": "40.5 ± 2.1* ‰"}, {"measurement": "Bridges", "setting": "Huh6 cells; 4% FBS, 48hrs, 100 mM", "result": "3.0 ± 1.4 ‰"}, {"measurement": "Buds", "setting": "Huh6 cells; 4% FBS, 48hrs, 100 mM", "result": "35.5 ± 3.5* ‰"}, {"measurement": "CBPI", "setting": "Huh6 cells; 4% FBS, 48hrs, 100 mM", "result": "1.7 ± 0.1"}, {"measurement": "MN (total number of micronuclei)", "setting": "Huh6 cells; 4% FBS, 48hrs, 100 mM", "result": "53.0 ± 4.2* ‰"}, {"measurement": "BN-MN (number of micronucleated cells)", "setting": "Huh6 cells; [2]", "result": "33.0 ± 2.8*"}, {"measurement": "Bridges", "setting": "Huh6 cells; [2]", "result": "3.5 ± 0.7"}, {"measurement": "Buds", "setting": "Huh6 cells; [2]", "result": "28.0 ± 2.8"}, {"measurement": "CBPI", "setting": "Huh6 cells; [2]", "result": "1.9 ± 0.0"}, {"measurement": "MN (total number of micronuclei)", "setting": "Huh6 cells; [2]", "result": "34.5 ± 5.0*"}, {"measurement": "Lowest effective concentration (LOEC) in micronucleus experiments", "setting": "Huh6 cells; Huh6", "result": 100000, "unit": "µM"}, {"measurement": "Lowest effective concentration (LOEC) in micronucleus experiments", "setting": "HepG2; ref Majer et al., 2004", "result": 30000, "unit": "µM"}, {"measurement": "MN induction after 28 hr compared with 1 hr exposure (in words)", "setting": "HepG2; ref Natarajan and Darroudi (1991)", "result": "stronger effects"}, {"measurement": "Lowest effective concentration (LOEC) in micronucleus experiments", "setting": "HepG2; ref Valentin‐Severin et al., 2003", "result": 10000, "unit": "µM"}, {"measurement": "Lowest effective concentration (LOEC) in micronucleus experiments", "setting": "Hep3B", "result": "Negative"}, {"measurement": "NOEC (highest no observable effect concentration tested)", "setting": "Hep3B", "result": 180000, "unit": "µM"}, {"measurement": "Lowest effective concentration (LOEC) in micronucleus experiments", "setting": "Human lymphocytes", "result": "Negative"}, {"measurement": "NOEC (highest no observable effect concentration tested)", "setting": "Human lymphocytes", "result": 67500, "unit": "µM"}, {"measurement": "IARC classification", "setting": "[1]", "result": "Methylation of the DNA; activation: CYP2E1; IARC: Group 2A"}]}
